Values quoted from earlier work as cited in patent US6410588B1, “Use of cannabinoids as anti-inflammatory agents” (priority 1998, dated 2002).

Assays:
[1] = test system: nitric oxide (NO); details: macrophages activated by LPS and IFNγ; cited from earlier work
[2] = test system: IFNγ; details: cited from earlier work
[3] = test system: antibody formation against sheep red blood cells; details: studies in mice; cited from earlier work

In the case of `CCCCCc1cc(O)c2c(c1)OC(C)(C)C1CCC(C)=CC21` (stereo not shown) [THC, Delta-9-tetrahydrocannabinoid, reference compound], the “nitric oxide (NO) production” value [1] is given as “inhibited”, the IFNγ synthesis ([2]; high concentrations (5-24 μg/ml)) is given as “completely blocked IFNγ synthesis” and the IFNγ production ([2]; low concentrations) is given as “increase IFNγ production”. For the same compound, the “antibody formation against sheep red blood cells” value [3] was “suppresses antibody formation”.
